Assay results from ChEMBL document CHEMBL5321202, “Design, synthesis and anti-AD effects of dual inhibitor targeting glutaminyl cyclase/GSK-3β” (Eur J Med Chem, 2023).
Active and inactive are the calls of the source. The rule behind the calls is not given here.

Legend:
[1] = biological target: Glycogen synthase kinase-3 beta (Homo sapiens, UniProt P49841); assay: Inhibition of GSK3beta (unknown origin) activity assessed as fluorescence intensity by ADP-Glo Kinase Assay
[2] = biological target: Glutaminyl-peptide cyclotransferase (Homo sapiens, UniProt Q16769); assay: Inhibition of human glutaminyl cyclase activity assessed as fluorescence using H-Gln-AMC substrate
Sequence of Glutaminyl-peptide cyclotransferase (Q16769 whole entry): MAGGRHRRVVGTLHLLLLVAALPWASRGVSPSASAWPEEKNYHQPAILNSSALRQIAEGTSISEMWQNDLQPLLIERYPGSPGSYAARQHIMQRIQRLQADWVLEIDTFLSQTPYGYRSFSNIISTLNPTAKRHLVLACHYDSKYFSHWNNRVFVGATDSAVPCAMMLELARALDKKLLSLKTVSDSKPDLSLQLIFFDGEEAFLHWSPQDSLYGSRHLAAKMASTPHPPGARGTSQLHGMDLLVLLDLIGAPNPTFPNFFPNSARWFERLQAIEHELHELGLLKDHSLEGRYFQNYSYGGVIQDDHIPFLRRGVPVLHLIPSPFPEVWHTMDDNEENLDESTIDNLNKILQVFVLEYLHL

[3] = species: Mus musculus; conditions: dose 8.0 mg/kg, route ip, time 45.0 day
[4] = In vivo inhibition of GSK3beta activity in cortex region of 3 x Tg-AD mouse model at 8 mg/kg, ip every 48 hrs once for 45 days by Western blot analysis relative to control; format: functional; design: scale not given: the % may be the effect or the level left; conditions: time 45 day

Sequence of Glycogen synthase kinase-3 beta (P49841 whole entry): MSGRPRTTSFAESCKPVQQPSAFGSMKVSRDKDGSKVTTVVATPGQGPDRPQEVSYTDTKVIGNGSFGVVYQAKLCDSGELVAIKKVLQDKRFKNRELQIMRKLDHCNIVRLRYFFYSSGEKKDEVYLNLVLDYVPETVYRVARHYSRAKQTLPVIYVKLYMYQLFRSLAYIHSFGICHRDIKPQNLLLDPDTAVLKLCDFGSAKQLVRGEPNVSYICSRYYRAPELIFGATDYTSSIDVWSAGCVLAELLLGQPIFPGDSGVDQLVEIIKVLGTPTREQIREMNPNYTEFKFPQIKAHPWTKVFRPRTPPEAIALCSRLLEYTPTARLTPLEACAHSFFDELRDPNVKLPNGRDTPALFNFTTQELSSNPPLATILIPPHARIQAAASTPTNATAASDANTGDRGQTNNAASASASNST

| SMILES | IC50 [1] | IC50 [2] | inhibition [3] | Activity [4] |
| --- | --- | --- | --- | --- |
| O=C1NC(=O)C(c2cn(CCCn3ccnc3)c3ccc(Br)cc23)=C1c1cccs1 | 0.09 µM | 1.04 µM |  |  |
| Cc1ccc2c(c1)c(C1=C(c3ccc(F)cc3)C(=O)NC1=O)cn2CCCn1ccnc1 | 23.3 µM | 4.36 µM |  |  |
| Cc1ccc2c(C3=C(c4ccc5ccccc5c4)C(=O)NC3=O)cn(CCCn3ccnc3)c2c1 | 0.14 µM | 10.8 µM |  |  |
| O=C1NC(=O)C(c2cn(CCCn3ccnc3)c3cc(Br)ccc23)=C1c1ccc(F)cc1 | 0.72 µM | 2.81 µM |  |  |
| Cc1ccccc1C1=C(c2cn(CCCn3ccnc3)c3cc(Br)ccc23)C(=O)NC1=O | 0.14 µM | 3.85 µM |  |  |
| COc1ccc2c(c1)c(C1=C(c3ccccc3F)C(=O)NC1=O)cn2CCCn1ccnc1 | 20.8 µM | 3.65 µM |  |  |
| Cc1ccc2c(c1)c(C1=C(c3ccccc3C)C(=O)NC1=O)cn2CCCn1ccnc1 | 0.073 µM | 3.84 µM |  |  |
| Cc1ccc2c(c1)c(C1=C(c3ccc4ccccc4c3)C(=O)NC1=O)cn2CCCn1ccnc1 | 5.14 µM | 3.44 µM |  |  |
| O=C1NC(=O)C(c2cn(CCCn3ccnc3)c3ccc(Br)cc23)=C1c1ccc2c(c1)OCO2 | 0.044 µM | 2.51 µM |  |  |
| O=C1NC(=O)C(c2cn(CCCn3ccnc3)c3cc(Br)ccc23)=C1c1ccc2ccccc2c1 | 0.1 µM | 3.98 µM |  |  |
| COc1ccc(C2=C(c3cn(CCCn4ccnc4)c4ccc(Br)cc34)C(=O)NC2=O)cc1OC | 0.051 µM | 3.16 µM |  |  |
| Cc1ccc2c(c1)c(C1=C(c3ccccc3F)C(=O)NC1=O)cn2CCCn1ccnc1 | 47.1 µM | 3.39 µM |  |  |
| COc1ccccc1C1=C(c2cn(CCCn3ccnc3)c3ccccc23)C(=O)NC1=O | 19 µM | 7.32 µM |  |  |
| O=C1NC(=O)C(c2cn(CCCn3ccnc3)c3ccc(Br)cc23)=C1c1cc(C(F)(F)F)cc(C(F)(F)F)c1 | 0.59 µM | 6.88 µM |  |  |
| O=C1NC(=O)C(c2cn(CCCn3ccnc3)c3ccccc23)=C1c1ccc(F)cc1 | 0.057 µM | 1.34 µM | Active | 73.4% |
| COc1ccc2c(c1)c(C1=C(c3ccccc3OC)C(=O)NC1=O)cn2CCCn1ccnc1 | 19.8 µM | 2.44 µM |  |  |
| Cc1ccc(C2=C(c3cn(CCCn4ccnc4)c4ccc(Br)cc34)C(=O)NC2=O)cc1 | 0.19 µM | 2.08 µM |  |  |
| COc1ccc2c(c1)c(C1=C(c3ccc4ccccc4c3)C(=O)NC1=O)cn2CCCn1ccnc1 | 0.059 µM | 4.97 µM |  |  |
| COc1ccc2c(c1)c(C1=C(c3ccc(C)cc3)C(=O)NC1=O)cn2CCCn1ccnc1 | 0.099 µM | 9 µM |  |  |
| O=C1NC(=O)C(c2cn(CCCn3ccnc3)c3cc(Br)ccc23)=C1c1ccccc1F | 0.06 µM | 4.77 µM |  |  |
| O=C1NC(=O)C(c2cn(CCCn3ccnc3)c3ccc(Br)cc23)=C1c1cc(F)c(F)cc1F | 0.12 µM | 2.35 µM |  |  |
| Cc1ccc(C2=C(c3cn(CCCn4ccnc4)c4cc(Br)ccc34)C(=O)NC2=O)cc1 | 0.38 µM | 3.44 µM |  |  |
| O=C1NC(=O)C(c2cn(CCCn3ccnc3)c3ccc(Br)cc23)=C1c1ccccc1 | 0.069 µM | 1.76 µM |  |  |
| Cc1ccccc1C1=C(c2cn(CCCn3ccnc3)c3ccccc23)C(=O)NC1=O | 26.7 µM | 4.18 µM |  |  |
| Cc1ccc(C2=C(c3cn(CCCn4ccnc4)c4ccc(C)cc34)C(=O)NC2=O)cc1 | 7.75 µM | 5.47 µM |  |  |
| COc1ccc(C2=C(c3cn(CCCn4ccnc4)c4cc(C)ccc34)C(=O)NC2=O)cc1 | 0.097 µM | 7.01 µM |  |  |
| O=C1NC(=O)C(c2cn(CCCn3ccnc3)c3ccccc23)=C1c1ccccc1 | 0.014 µM | 2.8 µM |  |  |

| SMILES | IC50 [1] | IC50 [2] | inhibition [3] | Activity [4] |
| --- | --- | --- | --- | --- |
| Cc1ccc(C2=C(c3cn(CCCn4ccnc4)c4ccccc34)C(=O)NC2=O)cc1 | 15.4 µM | 4.34 µM |  |  |
| O=C1NC(=O)C(c2cn(CCCn3ccnc3)c3ccc(Br)cc23)=C1c1ccc2ccccc2c1 | 0.069 µM | 2.98 µM |  |  |
| O=C1NC(=O)C(c2cn(CCCn3ccnc3)c3ccccc23)=C1c1ccccc1[N+](=O)[O-] | 35.1 µM | 2.26 µM |  |  |
| COc1ccc(C2=C(c3cn(CCCn4ccnc4)c4ccccc34)C(=O)NC2=O)cc1 | 0.04 µM | 7.46 µM |  |  |
| O=C1NC(=O)C(c2cn(CCCn3ccnc3)c3ccc(Br)cc23)=C1c1ccccc1[N+](=O)[O-] | 0.066 µM | 4.28 µM |  |  |
| Cc1cc(C)c(C2=C(c3cn(CCCn4ccnc4)c4ccc(Br)cc34)C(=O)NC2=O)c(C)c1 | 0.11 µM | 2.34 µM |  |  |
| COc1ccc2c(c1)c(C1=C(c3ccc(F)cc3)C(=O)NC1=O)cn2CCCn1ccnc1 | 0.15 µM | 0.36 µM |  |  |
| COc1ccccc1C1=C(c2cn(CCCn3ccnc3)c3ccc(C)cc23)C(=O)NC1=O | 0.065 µM | 8.12 µM |  |  |
| O=C1NC(=O)C(c2cn(CCCn3ccnc3)c3ccccc23)=C1c1ccccc1F | 17.7 µM | 2.37 µM |  |  |
| COc1ccc2c(c1)c(C1=C(c3ccccc3C)C(=O)NC1=O)cn2CCCn1ccnc1 | 8.01 µM | 4.34 µM |  |  |
| Cc1ccccc1C1=C(c2cn(CCCn3ccnc3)c3ccc(Br)cc23)C(=O)NC1=O | 0.087 µM | 5.12 µM |  |  |
| COc1ccc2c(c1)c(C1=C(c3ccccc3[N+](=O)[O-])C(=O)NC1=O)cn2CCCn1ccnc1 | 0.034 µM | 9.91 µM |  |  |
| COc1ccc(C2=C(c3cn(CCCn4ccnc4)c4cc(Br)ccc34)C(=O)NC2=O)cc1 | 0.23 µM | 2.59 µM |  |  |
| O=C1NC(=O)C(c2cn(CCCn3ccnc3)c3ccccc23)=C1c1ccc2ccccc2c1 | 9.19 µM | 3.51 µM |  |  |
| COc1ccc(C2=C(c3cn(CCCn4ccnc4)c4ccc(Br)cc34)C(=O)NC2=O)cc1 | 0.11 µM | 2.33 µM |  |  |
| O=C1NC(=O)C(c2cn(CCCn3ccnc3)c3ccc(Br)cc23)=C1c1ccccc1F | 0.032 µM | 4.7 µM |  |  |
| COc1ccccc1C1=C(c2cn(CCCn3ccnc3)c3cc(Br)ccc23)C(=O)NC1=O | 0.021 µM | 21.7 µM |  |  |
| COc1ccc(C2=C(c3cn(CCCn4ccnc4)c4ccc(OC)cc34)C(=O)NC2=O)cc1 | 0.014 µM | 5.9 µM |  |  |
| Cc1ccc(C2=C(c3cn(CCCn4ccnc4)c4cc(C)ccc34)C(=O)NC2=O)cc1 | 0.048 µM | 11.9 µM |  |  |
| O=C1NC(=O)C(c2cn(CCCn3ccnc3)c3ccc(Br)cc23)=C1c1ccc(F)cc1 | 0.14 µM | 2.55 µM |  |  |
| CC(C)(C)c1ccc(C2=C(c3cn(CCCn4ccnc4)c4ccc(Br)cc34)C(=O)NC2=O)cc1 | 0.42 µM | 8.17 µM |  |  |
| O=C1NC(=O)C(c2cn(CCCn3ccnc3)c3ccccc23)=C1c1c[nH]c2ccccc12 | 22.8 µM | 4.27 µM |  |  |
| Cc1ccc2c(C3=C(c4ccccc4[N+](=O)[O-])C(=O)NC3=O)cn(CCCn3ccnc3)c2c1 | 0.1 µM | 69.1 µM |  |  |
| Cc1ccc2c(c1)c(C1=C(c3ccccc3[N+](=O)[O-])C(=O)NC1=O)cn2CCCn1ccnc1 | 8.15 µM | 3.62 µM |  |  |
| COc1ccc2c(C3=C(c4ccccc4F)C(=O)NC3=O)cn(CCCn3ccnc3)c2c1 | 0.011 µM | 10.8 µM |  |  |
| COc1ccc(C2=C(c3cn(CCCn4ccnc4)c4ccc(C)cc34)C(=O)NC2=O)cc1 | 19.9 µM | 6.13 µM |  |  |
| COc1ccccc1C1=C(c2cn(CCCn3ccnc3)c3ccc(Br)cc23)C(=O)NC1=O | 5.2 µM | 6.62 µM |  |  |
